row,melting point,Compound
1,241 °C (dec.),O=C(Nc1cccc(-c2ccc(Cl)c(F)c2)c1)Nc1c(Cl)cc(Cl)c2ccc(O)cc12 [Example 4-19]
2,215 °C,CN(C(=O)Nc1ccc2ccccc2c1)c1cccc2ccc(O)cc12 [Example 1-79]
3,237 to 238 °C,Cc1ccc(NC(=O)Nc2ccc(Cl)c(C(F)(F)F)c2)c2cc(O)ccc12 [Example 1-80]
4,211 °C,O=C(Nc1ccc(Cl)c(C(F)(F)F)c1)Nc1ccc(Br)c2ccc(O)cc12 [Example 1-72]
5,> 300 °C,O=C(Nc1cccc(F)c1)Nc1c(Cl)cc(Cl)c2ccc(O)cc12 [Example 1-40]
6,234 to 236 °C,CCOC(=O)c1cccc(NC(=O)Nc2c(Cl)cc(Cl)c3ccc(O)cc23)c1 [Example 1-12]
7,226 °C (dec.),CC(=O)Oc1ccc2c(Cl)cc(Cl)c(NC(=O)Nc3ccc(F)c(F)c3)c2c1 [Example 3-14]
8,253 °C,CC(=O)c1ccc(-c2cccc(NC(=O)Nc3c(Cl)cc(Cl)c4ccc(O)cc34)c2)cc1 [Example 4-10]
9,254 °C,Cc1cc(Cl)c(NC(=O)Nc2ccc(Cl)c(C(F)(F)F)c2)c2cc(O)ccc12 [Example 1-83]
10,238 °C (dec.),O=C(Nc1c(Cl)cc(Cl)c2ccc(O)cc12)NC1CCCc2ccccc21 (stereo not drawn) [Example 4-13]
11,246 °C (dec.),COc1cccc(-c2cccc(NC(=O)Nc3c(Cl)cc(Cl)c4ccc(O)cc34)c2)c1 [Example 4-17]
12,215 °C,O=C(Nc1ccc(F)c(C(F)(F)F)c1)Nc1ccc(Br)c2ccc(O)cc12 [Example 1-73]
13,235 °C (dec.),CC(=O)Oc1ccc2c(Br)cc(Br)c(NC(=O)Nc3cccc(-c4ccccc4)c3)c2c1 [Example 3-2]
14,194 °C,CN(C(=O)NCc1ccc(Br)cc1)c1cccc2ccc(O)cc12 [Example 1-78]
15,244 °C (dec.),O=C(Nc1ccc(F)c(F)c1)Nc1c(Cl)cc(Cl)c2ccc(O)cc12 [Example 4-38]
16,189 °C,O=C(Nc1ccc2ccccc2c1)Nc1cccc2ccc(O)c(F)c12 [Example 1-53]
17,242 to 243 °C,O=C(Nc1cccc(Cl)c1)Nc1c(Br)cc(Br)c2ccc(O)cc12 [Example 1-3]
18,235 to 238 °C (dec.),COc1ccc(NC(=O)Nc2c(Cl)cc(Cl)c3ccc(O)cc23)cc1F [Example 4-41]
19,287 °C,CC(=O)Oc1ccc2c(Cl)cc(Cl)c(NC(=O)Nc3cccc(-c4ccc(Cl)c(F)c4)c3)c2c1 [Example 3-5]
20,183 to 184 °C,C=CCOc1ccc2cccc(NC(=O)Nc3ccc(Cl)c(C(F)(F)F)c3)c2c1 [Example 1-164]
21,210 °C,O=C(NCc1ccc(Br)cc1)Nc1cccc2ccc(O)cc12 [Example 1-71]
22,230 °C,O=C(Nc1ccc(Oc2ccc(Cl)cc2)cc1)Nc1c(Cl)cc(Cl)c2ccc(O)cc12 [Example 4-9]
23,214 to 215 °C,O=C(Nc1cccc(Cl)c1)Nc1cccc2ccc(OC(=O)c3ccccc3)cc12 [Example 1-166]
24,298 °C (dec.),O=C(Nc1ccc(F)cc1Cl)Nc1c(Cl)cc(Cl)c2ccc(O)cc12 [Example 4-16]

row,melting point,Compound
1,220 to 222 °C,O=C(Nc1ccc(Cl)c(C(F)(F)F)c1)Nc1cccc2ccc(OC(=O)c3ccccc3)cc12 [Example 1-165]
2,192 °C (dec.),CN(C)c1ccc(NC(=O)Nc2c(Cl)cc(Cl)c3ccc(O)cc23)cc1 [Example 1-32]
3,234 °C (dec.),Cc1ccc(-c2cccc(NC(=O)Nc3c(Cl)cc(Cl)c4ccc(O)cc34)c2)cc1Cl [Example 4-18]
4,199.8 to 200.5 °C,CCN(CC)c1ccc(NC(=O)Nc2c(Cl)ccc3ccc(O)cc23)cc1 [Example 1-35]
5,232 to 234 °C,"Nc1ccc2cccc(NC(=O)Nc3ccc(Cl)c(C(F)(F)F)c3)c2c1 [Example 1-76, N-(7-amino-naphthalen-1-yl)-N′-(4-chloro-3-trifluoromethyl-phenyl)urea]"
6,206 °C,CC(=O)Oc1ccc2c(Cl)cc(Cl)c(NC(=O)Nc3ccc(N4CCOCC4)c(Cl)c3)c2c1 [Example 3-13]
7,206 °C (dec.),COc1cccc(-c2cccc(NC(=O)Nc3c(Cl)cc(Cl)c4ccc([O-])cc34)c2)c1.[K+]
8,205 °C (dec.),CC(=O)Oc1ccc2c(Cl)cc(Cl)c(NC(=O)Nc3cnc4ccccc4c3)c2c1 [Example 3-16]
9,258 to 260 °C,CCOC(=O)c1ccc(NC(=O)Nc2c(Cl)cc(Cl)c3ccc(O)cc23)cc1 [Example 1-13]
10,229 to 233 °C,O=C(Nc1ccc(Cl)cc1)Nc1c(Br)cc(Br)c2ccc(O)cc12 [Example 1-26]
11,185 °C,O=C(NCc1ccc(Br)cc1)Nc1cccc2ccc([O-])c(F)c12.[K+]
12,300 °C,O=C(Nc1cccc(Cl)c1Cl)Nc1c(Cl)cc(Cl)c2ccc(O)cc12 [Example 1-39]
13,260 °C (dec.),O=C(Nc1ccc(Cl)c(C(F)(F)F)c1)Nc1c(Cl)ccc2ccc(O)cc12 [Example 1-8]
14,239 °C (dec.),Cc1ccc(NC(=O)Nc2c(Cl)cc(Cl)c3ccc(O)cc23)cc1C [Example 4-12]
15,228 to 230 °C,COc1ccccc1NC(=O)Nc1c(Br)cc(Br)c2ccc(O)cc12 [Example 1-15]
16,228 °C,O=C(Nc1ccc(Cl)c(C(F)(F)F)c1)Nc1cccc2ccc(O)c(F)c12 [Example 1-34]
17,223 to 226 °C,COc1ccc(CNC(=O)Nc2c(Cl)cc(Cl)c3ccc(O)cc23)cc1 [Example 1-31]
18,226 to 229 °C,O=C(NCc1ccc(Br)cc1)Nc1c(Cl)ccc2ccc(O)cc12 [Example 1-6]
19,228 to 232 °C,O=C(Nc1cccc(-c2ccccc2Cl)c1)Nc1c(Cl)cc(Cl)c2ccc(O)cc12 [Example 4-3]
20,218 to 219 °C,CNc1ccc2cccc(NC(=O)Nc3ccc(Cl)c(C(F)(F)F)c3)c2c1 [Example 1-74]
21,247 °C (dec.),O=C(Nc1cccc(-c2ccc(C(=O)O)cc2)c1)Nc1c(Cl)cc(Cl)c2ccc(O)cc12 [Example 4-11]
22,193 to 196 °C,CCOC(=O)c1cccc(NC(=O)Nc2c(Br)cc(Br)c3ccc(O)cc23)c1 [Example 1-17]
23,230 °C (dec.),O=C(Nc1ccc(Cc2ccccc2)cc1)Nc1c(Cl)cc(Cl)c2ccc(O)cc12 [Example 4-14]
24,193 to 194 °C,O=C(Nc1ccc(Cl)c(C(F)(F)F)c1)Nc1cccc2ccc(NCc3ccccc3)cc12 [Example 1-75]

row,melting point,Compound
1,226 °C (dec.),O=C(Nc1cccc(Oc2ccccc2)c1)Nc1c(Cl)cc(Cl)c2ccc(O)cc12 [Example 4-15]
2,179 °C (dec.),O=C(Nc1ccc(C(F)(F)F)cc1)Nc1c(Cl)cc(Cl)c2ccc([O-])cc12.[K+]
3,236 °C (dec.),O=C(Nc1ccc2c(c1)C(=O)c1ccccc1-2)Nc1c(Cl)cc(Cl)c2ccc(O)cc12 [Example 4-36]
4,207.5 °C,CC(C)c1ccc(NC(=O)Nc2cccc3cc(O)ccc23)cc1 [Example 1-139]
5,242 to 243 °C,O=C(Nc1ccc(Cl)c(C(F)(F)F)c1)Nc1c(Br)cc(Br)c2ccc(O)cc12 [Example 1-4]
6,200 °C,O=C(Nc1ccc2c(c1)C(=O)c1ccccc1-2)Nc1c(Cl)cc(Cl)c2ccc([O-])cc12.[K+]
7,241 to 242 °C,"CC(=O)Nc1ccc2cccc(NC(=O)Nc3ccc(Cl)c(C(F)(F)F)c3)c2c1 [Example 9-1, N-{8-[({[4-Chloro-3-(trifluoromethyl)phenyl]amino}carbonyl)amino]-2-naphthyl}acetamide]"
8,150 °C (dec.),O=C(Nc1ccc(Cl)c(C(F)(F)F)c1)Nc1c(Cl)cc(Cl)c2ccc([O-])cc12.[K+]
9,162 °C (dec.),CC1COC(c2cccc(NC(=O)Nc3c(Cl)ccc4ccc(O)cc34)c2)=N1 (stereo not drawn) [Example 5-2]
10,222 to 225 °C,O=C(Nc1ccc(F)cc1)Nc1c(Br)cc(Br)c2ccc(O)cc12 [Example 1-25]
11,> 250 °C,O=C(Nc1cccc2c1C(=O)c1ccccc1-2)Nc1c(Cl)cc(Cl)c2ccc(O)cc12 [Example 4-37]
12,223 to 226 °C,COc1cccc(NC(=O)Nc2c(Cl)cc(Cl)c3ccc(O)cc23)c1 [Example 1-11]
13,240 °C (dec.),Cc1cc(NC(=O)Nc2c(Cl)cc(Cl)c3ccc(O)cc23)ccc1Cl [Example 4-39]
14,241 °C,"CCCc1ccc(NC(=O)Nc2c(Cl)cc(Cl)c3ccc(O)cc23)cc1 [Example 4-1, N-(2,4-Dichloro-7-hydroxy-1-naphthyl)-N′-(4-propylphenyl)urea]"
15,162 °C,"O=C(Cc1cccc2ccc(O)cc12)Nc1ccc(Cl)c(C(F)(F)F)c1 [Example 11-1, N-[4-Chloro-3-(trifluoromethyl)phenyl]-2-(7-hydroxy-1-naphthyl)acetamide]"
16,215 to 218 °C,O=C(NCc1cccc(F)c1)Nc1c(Br)cc(Br)c2ccc(O)cc12 [Example 1-33]
17,255 °C (dec.),O=C(Nc1ccc(Cl)c(C(F)(F)F)c1)Nc1c(Cl)cc(Cl)c2ccc(O)cc12 [Example 1-9]
18,268 to 271 °C,O=C(Nc1ccc(C(F)(F)F)cc1)Nc1c(Cl)cc(Cl)c2ccc(O)cc12 [Example 1-23]
19,213 to 216 °C,COc1cccc(NC(=O)Nc2c(Br)cc(Br)c3ccc(O)cc23)c1 [Example 1-16]
20,233 to 236 °C,O=C(Nc1cccc(C(F)(F)F)c1)Nc1c(Br)cc(Br)c2ccc(O)cc12 [Example 1-27]
21,225 to 226 °C,"CS(=O)(=O)Nc1ccc2cccc(NC(=O)Nc3ccc(Cl)c(C(F)(F)F)c3)c2c1 [Example 10-1, N-{8-[({[4-Chloro-3-(trifluoromethyl)phenyl]amino}carbonyl)amino]-2-naphthyl}methanesulfonamide]"
22,> 260 °C,"O=C(Nc1cccc(Cl)c1)Nc1c(Cl)cc(Cl)c2ccc(O)cc12 [Example 1-1, N-(3-Chlorophenyl)-N′-(2,4-dichloro-7-hydroxy-1-naphthyl)urea]"
23,263 to 265 °C,O=C(Nc1ccc2ccccc2c1)Nc1c(Cl)cc(Cl)c2ccc(O)cc12 [Example 1-14]
24,261 to 264 °C (dec.),Cc1ccc(NC(=O)Nc2c(Cl)cc(Cl)c3ccc(O)cc23)cc1F [Example 4-42]

# — patent US20040259875A1, “Amine derivatives” (priority 2001, published 2004)
